Data from PubChem BioAssay AID1963872 (Molecular Pharmacology Branch, DTP, NCI, 2024).

Test system: KRAS patient-derived spheroids with HUVEC/MSC, viability
Assay: Anticancer human tumor 519858-162-T-J1-PDC patient-derived colon adenocarcinoma cell line growth inhibition [KRAS2]
Conditions: for IC50: curve of first compound; for viability, T/C: stronger effect = lower value
Outline: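 KRAS-mutant tumor cells were grown as spheroids with HUVEC endothelial cells and human MSCs as stroma. Targeted agents were tested alone and with KRAS pathway inhibitors. Doses started at or near clinical Cmax, or 10 microM, descending half-log.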

[1] = second compound 0.1 µM, first compound 0.0316 µM
[2] = second compound 0.1 µM, first compound 0.1 µM
[3] = second compound 0.1 µM, first compound 0.316 µM
[4] = second compound 0.1 µM, first compound 1 µM
[5] = second compound 0.1 µM, first compound 3.16 µM
[6] = second compound 0.1 µM, first compound 10 µM
[7] = second compound 0.316 µM, first compound 0.0316 µM
[8] = second compound 0.316 µM, first compound 0.1 µM
[9] = second compound 0.316 µM, first compound 0.316 µM
[10] = second compound 0.316 µM, first compound 1 µM
[11] = second compound 0.316 µM, first compound 3.16 µM
[12] = second compound 0.316 µM, first compound 10 µM
[13] = second compound 1 µM, first compound 0.0316 µM
[14] = second compound 1 µM, first compound 0.1 µM
[15] = second compound 1 µM, first compound 0.316 µM
[16] = second compound 1 µM, first compound 1 µM
[17] = second compound 1 µM, first compound 3.16 µM
[18] = second compound 1 µM, first compound 10 µM
[19] = second compound 3.16 µM, first compound 0.0316 µM
[20] = second compound 3.16 µM, first compound 0.1 µM
[21] = second compound 3.16 µM, first compound 0.316 µM
[22] = second compound 3.16 µM, first compound 1 µM
[23] = second compound 3.16 µM, first compound 3.16 µM
[24] = second compound 3.16 µM, first compound 10 µM
[25] = second compound 10 µM, first compound 0.0316 µM
[26] = second compound 10 µM, first compound 0.1 µM
[27] = second compound 10 µM, first compound 0.316 µM
[28] = second compound 10 µM, first compound 1 µM
[29] = second compound 10 µM, first compound 3.16 µM
[30] = second compound 10 µM, first compound 10 µM
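Also: compound exposure lasted seven days before readout.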
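For viability, T/C in this document: 100% = DMSO vehicle control viability.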

SMILES	IC50 (second compound 0.1 µM) [nM]	IC50 (second compound 0.316 µM) [nM]	IC50 (second compound 1 µM) [nM]	IC50 (second compound 3.16 µM) [nM]	IC50 (second compound 10 µM) [nM]	viability, T/C [1] [%]	viability, T/C [2] [%]	viability, T/C [3] [%]	viability, T/C [4] [%]	viability, T/C [5] [%]	viability, T/C [6] [%]	viability, T/C [7] [%]	viability, T/C [8] [%]	viability, T/C [9] [%]	viability, T/C [13] [%]	viability, T/C [14] [%]	viability, T/C [19] [%]	viability, T/C [20] [%]	viability, T/C [25] [%]	viability, T/C [26] [%]	also measured
COc1cc(Nc2ncc3c(n2)-c2ccc(Cl)cc2C(c2c(F)cccc2OC)=NC3)ccc1C(=O)O + COc1cc2nc(C)nc(NC(C)c3cc(N)cc(C(F)(F)F)c3)c2cc1OC1CCOC1	> 10000	> 10000	> 10000	> 10000	> 10000	76.3	72.5	68	75.6	88.5	87.6	79.3	78.1	62.2	85.9	66.4	78.9	72	65.3	74.2	viability, T/C [10]: 82.8%; viability, T/C [11]: 78.4%; viability, T/C [12]: 115%; viability, T/C [15]: 76.6%; viability, T/C [16]: 74.8%; viability, T/C [17]: 68.6%; viability, T/C [18]: 72.3%; viability, T/C [21]: 60.6%; viability, T/C [22]: 80.9%; viability, T/C [23]: 60.6%; viability, T/C [24]: 76.4%; viability, T/C [27]: 54.8%; viability, T/C [28]: 63.5%; viability, T/C [29]: 60.6%; viability, T/C [30]: 75.3%
CC(C)n1nc(-c2ccc3oc(N)nc3c2)c2c(N)ncnc21 + C=CC(=O)N1CCN(c2nc(=O)n(-c3c(C)ccnc3C(C)C)c3nc(-c4c(O)cccc4F)c(F)cc23)C(C)C1	> 100	> 100	> 100	> 100	81.5	76.3	60.1	–	–	–	–	57.6	54.5	–	87.3	54.9	64	56.1	62.3	47.1	viability, T/C (second compound 0.1 µM, first compound 0.000316 µM): 114%; viability, T/C (second compound 0.1 µM, first compound 0.001 µM): 102%; viability, T/C (second compound 0.1 µM, first compound 0.00316 µM): 104%; viability, T/C (second compound 0.1 µM, first compound 0.01 µM): 67.5%; viability, T/C (second compound 0.316 µM, first compound 0.000316 µM): 87.5%; viability, T/C (second compound 0.316 µM, first compound 0.001 µM): 94%; viability, T/C (second compound 0.316 µM, first compound 0.00316 µM): 70.2%; viability, T/C (second compound 0.316 µM, first compound 0.01 µM): 58.9%; viability, T/C (second compound 1 µM, first compound 0.000316 µM): 108%; viability, T/C (second compound 1 µM, first compound 0.001 µM): 78.4%; viability, T/C (second compound 1 µM, first compound 0.00316 µM): 67.3%; viability, T/C (second compound 1 µM, first compound 0.01 µM): 56.7%; viability, T/C (second compound 3.16 µM, first compound 0.000316 µM): 94.3%; viability, T/C (second compound 3.16 µM, first compound 0.001 µM): 75.1%; viability, T/C (second compound 3.16 µM, first compound 0.00316 µM): 74.6%; viability, T/C (second compound 3.16 µM, first compound 0.01 µM): 68.8%; viability, T/C (second compound 10 µM, first compound 0.000316 µM): 85.4%; viability, T/C (second compound 10 µM, first compound 0.001 µM): 76.6%; viability, T/C (second compound 10 µM, first compound 0.00316 µM): 69.6%; viability, T/C (second compound 10 µM, first compound 0.01 µM): 86.7%
CCNC(=O)CC1N=C(c2ccc(Cl)cc2)c2cc(OC)ccc2-n2c(C)nnc21 (stereo not given) + COc1cc2nc(C)nc(NC(C)c3cc(N)cc(C(F)(F)F)c3)c2cc1OC1CCOC1	1410	656	531	367	106	82.4	90.9	86.2	67.9	7.95	5.72	78.8	125	78.3	71.1	58.3	70	90.5	58	48	viability, T/C [10]: 33.1%; viability, T/C [11]: 8.12%; viability, T/C [12]: 9.79%; viability, T/C [15]: 66.2%; viability, T/C [16]: 31.5%; viability, T/C [17]: 5.67%; viability, T/C [18]: 7.44%; viability, T/C [21]: 55.4%; viability, T/C [22]: 13.8%; viability, T/C [23]: 6.83%; viability, T/C [24]: 9.55%; viability, T/C [27]: 33%; viability, T/C [28]: 7.95%; viability, T/C [29]: 6.57%; viability, T/C [30]: 5.25%
Cn1nccc1Nc1nccc(-c2cc3c(s2)C(C)(C)N(CCN2CCOCC2)C3=O)n1	–	–	–	–	–	–	–	–	–	–	–	–	–	–	–	–	–	–	–	–	viability, T/C (compound 0.0316 µM): 95.4% [middle of 5 runs]; viability, T/C (compound 0.1 µM): 92.5% [middle of 5 runs]; viability, T/C (compound 0.316 µM): 87.5% [middle of 5 runs]; viability, T/C (compound 1 µM): 69.5% [middle of 5 runs]; viability, T/C (compound 10 µM): 31.8% [middle of 5 runs]
